We go through three compounds from ChEMBL document CHEMBL1201862, “PubChem BioAssay data set” (2004).

As a reminder, the IC50 is the concentration that gives 50% inhibition. Usually EC50 stands for the concentration needed to bring the measured effect to its halfway point. In general, Ki refers to the equilibrium dissociation constant of an inhibitor or competing ligand from its target.

Activity calls are given as the source filed them.

Holding throughout (type): functional
Assay [1] has as its target T1, Rac GTPase-activating protein 1 (Homo sapiens, UniProt Q9H0H5).
T1 sequence (Q9H0H5 whole entry): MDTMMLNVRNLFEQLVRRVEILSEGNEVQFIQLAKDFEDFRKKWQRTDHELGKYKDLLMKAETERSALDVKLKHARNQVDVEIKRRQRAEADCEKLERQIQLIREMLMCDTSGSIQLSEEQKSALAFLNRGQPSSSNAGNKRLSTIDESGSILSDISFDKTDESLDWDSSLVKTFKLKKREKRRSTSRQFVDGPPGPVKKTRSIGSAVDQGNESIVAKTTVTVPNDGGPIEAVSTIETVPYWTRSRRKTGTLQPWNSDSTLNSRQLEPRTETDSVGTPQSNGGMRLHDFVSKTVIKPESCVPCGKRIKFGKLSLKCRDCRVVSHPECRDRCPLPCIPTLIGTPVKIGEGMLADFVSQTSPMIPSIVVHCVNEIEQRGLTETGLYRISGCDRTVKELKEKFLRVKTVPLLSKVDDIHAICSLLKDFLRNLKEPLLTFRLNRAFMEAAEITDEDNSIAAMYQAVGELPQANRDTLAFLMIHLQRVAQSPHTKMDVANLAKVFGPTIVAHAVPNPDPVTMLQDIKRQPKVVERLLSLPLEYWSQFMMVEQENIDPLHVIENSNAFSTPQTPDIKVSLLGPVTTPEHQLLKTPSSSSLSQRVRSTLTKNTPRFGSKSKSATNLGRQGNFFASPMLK
Description: MgcRacGAP GTPase-activating activity inhibitors, confirmation, biochemical, ADP Hunter fluorescence, primary and confirmatory (AID 624330).

Assay [2] concerns the target T2, Sentrin-specific protease 6 (Homo sapiens, UniProt Q9GZR1).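 Also: Luminescence-based dose-response confirmatory assay of SENP6 inhibition, following up an ultra-high-throughput screen.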
T2 sequence (Q9GZR1 whole entry): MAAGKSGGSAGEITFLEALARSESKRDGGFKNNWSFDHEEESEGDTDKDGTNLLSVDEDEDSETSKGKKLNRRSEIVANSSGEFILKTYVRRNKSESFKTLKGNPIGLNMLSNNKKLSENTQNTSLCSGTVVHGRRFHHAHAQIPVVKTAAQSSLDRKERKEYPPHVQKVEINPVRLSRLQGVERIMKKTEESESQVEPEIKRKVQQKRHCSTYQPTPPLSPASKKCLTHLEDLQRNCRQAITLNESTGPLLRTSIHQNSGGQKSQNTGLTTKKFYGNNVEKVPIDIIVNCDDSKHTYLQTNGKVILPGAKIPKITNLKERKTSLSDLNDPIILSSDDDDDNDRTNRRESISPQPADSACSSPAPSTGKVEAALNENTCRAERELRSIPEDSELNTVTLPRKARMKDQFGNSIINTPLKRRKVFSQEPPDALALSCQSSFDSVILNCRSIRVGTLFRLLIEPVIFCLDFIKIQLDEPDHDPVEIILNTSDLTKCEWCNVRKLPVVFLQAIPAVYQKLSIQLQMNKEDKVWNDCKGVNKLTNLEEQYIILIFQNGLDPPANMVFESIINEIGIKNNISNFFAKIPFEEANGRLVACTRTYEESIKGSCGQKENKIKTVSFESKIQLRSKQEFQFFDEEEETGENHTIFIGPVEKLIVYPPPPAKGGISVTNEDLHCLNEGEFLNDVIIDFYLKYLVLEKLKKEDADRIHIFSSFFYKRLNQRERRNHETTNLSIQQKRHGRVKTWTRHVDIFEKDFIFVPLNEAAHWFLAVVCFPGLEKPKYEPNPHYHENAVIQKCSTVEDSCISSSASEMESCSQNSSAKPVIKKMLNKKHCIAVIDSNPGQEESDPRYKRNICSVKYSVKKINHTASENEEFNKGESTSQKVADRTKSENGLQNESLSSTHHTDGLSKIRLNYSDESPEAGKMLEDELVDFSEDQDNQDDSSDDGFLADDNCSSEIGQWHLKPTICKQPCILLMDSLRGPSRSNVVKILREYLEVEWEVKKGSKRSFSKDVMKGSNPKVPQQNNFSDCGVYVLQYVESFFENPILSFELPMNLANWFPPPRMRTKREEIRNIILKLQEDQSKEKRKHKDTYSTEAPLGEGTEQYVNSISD

A further assay concerns the target SUMO-activating enzyme (Homo sapiens, UniProt Q9UBT2). Description: SUMOylation inhibitor hit validation, confirmation, SUMOylation inhibitor project, biochemical, AlphaScreen (AID 2018).
In a further assay the target is T3, Protein RecA (Mycobacterium tuberculosis, UniProt P9WHJ3).
T3 sequence (P9WHJ3 whole entry): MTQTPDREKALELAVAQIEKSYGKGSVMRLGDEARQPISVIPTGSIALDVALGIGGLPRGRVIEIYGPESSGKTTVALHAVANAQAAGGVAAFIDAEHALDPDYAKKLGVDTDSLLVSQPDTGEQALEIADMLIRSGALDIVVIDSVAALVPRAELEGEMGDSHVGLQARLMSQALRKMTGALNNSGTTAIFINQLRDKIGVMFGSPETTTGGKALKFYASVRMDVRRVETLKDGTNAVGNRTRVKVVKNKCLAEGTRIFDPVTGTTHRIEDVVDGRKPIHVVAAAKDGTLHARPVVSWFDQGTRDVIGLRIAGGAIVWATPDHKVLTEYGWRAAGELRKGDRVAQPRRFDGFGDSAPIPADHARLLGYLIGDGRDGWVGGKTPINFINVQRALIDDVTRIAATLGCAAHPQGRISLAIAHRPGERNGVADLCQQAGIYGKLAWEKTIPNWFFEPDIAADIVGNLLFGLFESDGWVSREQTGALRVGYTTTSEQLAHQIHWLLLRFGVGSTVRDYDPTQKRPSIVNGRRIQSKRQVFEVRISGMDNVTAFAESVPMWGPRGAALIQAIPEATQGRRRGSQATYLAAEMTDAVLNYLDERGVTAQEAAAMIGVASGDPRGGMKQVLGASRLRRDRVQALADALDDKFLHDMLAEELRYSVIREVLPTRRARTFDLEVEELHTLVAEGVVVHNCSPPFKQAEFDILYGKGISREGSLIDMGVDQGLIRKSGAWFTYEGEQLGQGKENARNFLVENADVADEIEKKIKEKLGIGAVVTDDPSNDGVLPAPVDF
Nature of the assay: Fluorescence Cell-Free Homogeneous Dose Retest to Identify Inhibitors of RecA-Intein Splicing Activity. [Related pubchem assays (depositor defined):AID2097, AID2223, AID489010, AID492950].

Assay [3] has as its target BDNF/NT-3 growth factors receptor (Homo sapiens, UniProt Q16620).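 Also: NTRK2 measured as one member of a broad kinome-wide kinase profiling panel.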
In assay [4] the target is Dual specificity protein kinase CLK2 (Homo sapiens, UniProt P49760).
Sequence of Dual specificity protein kinase CLK2 (P49760 whole entry): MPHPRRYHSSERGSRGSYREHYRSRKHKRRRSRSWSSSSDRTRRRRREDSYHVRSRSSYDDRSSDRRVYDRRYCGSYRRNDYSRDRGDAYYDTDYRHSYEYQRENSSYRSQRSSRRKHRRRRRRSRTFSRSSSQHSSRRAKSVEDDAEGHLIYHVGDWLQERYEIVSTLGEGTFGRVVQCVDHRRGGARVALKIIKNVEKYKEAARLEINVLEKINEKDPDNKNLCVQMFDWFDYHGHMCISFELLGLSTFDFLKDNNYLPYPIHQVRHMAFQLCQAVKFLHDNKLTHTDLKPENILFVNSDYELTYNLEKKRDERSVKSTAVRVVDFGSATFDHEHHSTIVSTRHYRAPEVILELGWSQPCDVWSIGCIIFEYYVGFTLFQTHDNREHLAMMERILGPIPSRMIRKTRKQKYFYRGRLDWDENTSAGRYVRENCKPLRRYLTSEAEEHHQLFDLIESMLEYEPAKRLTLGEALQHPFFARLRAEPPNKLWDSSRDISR
Assay [5] deals with Glycogen synthase kinase-3 beta (Homo sapiens, UniProt P49841).
Sequence of Glycogen synthase kinase-3 beta (P49841 whole entry): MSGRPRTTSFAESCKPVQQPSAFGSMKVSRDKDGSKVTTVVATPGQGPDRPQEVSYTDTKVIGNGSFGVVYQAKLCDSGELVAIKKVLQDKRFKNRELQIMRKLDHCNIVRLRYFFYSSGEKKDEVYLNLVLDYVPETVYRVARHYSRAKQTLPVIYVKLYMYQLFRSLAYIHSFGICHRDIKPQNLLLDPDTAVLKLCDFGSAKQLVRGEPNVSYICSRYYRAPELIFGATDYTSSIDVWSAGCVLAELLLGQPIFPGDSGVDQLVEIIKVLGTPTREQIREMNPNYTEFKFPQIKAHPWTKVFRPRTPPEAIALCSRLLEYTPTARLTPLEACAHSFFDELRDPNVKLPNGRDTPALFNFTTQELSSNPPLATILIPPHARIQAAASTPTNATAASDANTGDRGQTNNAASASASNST
The target in assay [6] is Serine/threonine-protein kinase D3 (Homo sapiens, UniProt O94806).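 Also: determined within a kinase panel screen, with PRKCN as the panel member.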
Sequence of Serine/threonine-protein kinase D3 (O94806 whole entry): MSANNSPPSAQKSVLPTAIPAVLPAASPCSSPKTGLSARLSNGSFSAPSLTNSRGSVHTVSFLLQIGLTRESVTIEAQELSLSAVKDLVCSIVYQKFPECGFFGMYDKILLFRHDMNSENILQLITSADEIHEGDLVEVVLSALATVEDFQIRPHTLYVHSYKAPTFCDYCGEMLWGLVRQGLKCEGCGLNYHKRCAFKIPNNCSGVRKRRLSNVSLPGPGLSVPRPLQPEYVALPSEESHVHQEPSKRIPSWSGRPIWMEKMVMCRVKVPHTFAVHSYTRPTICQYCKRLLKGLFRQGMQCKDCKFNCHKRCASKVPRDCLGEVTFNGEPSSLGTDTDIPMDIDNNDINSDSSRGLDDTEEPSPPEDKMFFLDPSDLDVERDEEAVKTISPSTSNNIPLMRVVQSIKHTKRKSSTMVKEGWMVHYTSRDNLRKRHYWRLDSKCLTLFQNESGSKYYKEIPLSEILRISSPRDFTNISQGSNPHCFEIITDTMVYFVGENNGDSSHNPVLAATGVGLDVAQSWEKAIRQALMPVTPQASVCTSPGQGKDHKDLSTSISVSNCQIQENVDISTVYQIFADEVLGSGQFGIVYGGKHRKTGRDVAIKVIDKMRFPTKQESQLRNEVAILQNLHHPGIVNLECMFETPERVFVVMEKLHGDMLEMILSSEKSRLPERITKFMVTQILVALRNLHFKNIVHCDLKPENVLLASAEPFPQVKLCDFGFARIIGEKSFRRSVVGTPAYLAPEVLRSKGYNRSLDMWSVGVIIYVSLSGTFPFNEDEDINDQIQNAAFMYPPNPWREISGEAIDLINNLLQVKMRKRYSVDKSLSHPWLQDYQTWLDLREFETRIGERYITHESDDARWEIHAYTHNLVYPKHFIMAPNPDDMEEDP
Assay [7] has as its target Mitogen-activated protein kinase kinase kinase kinase 2 (Homo sapiens, UniProt Q12851).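 Also: measured as one member of a kinome-wide kinase panel, with MAP4K2 as the panel entry.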

Sequence of SUMO-activating enzyme (Q9UBE0 whole entry): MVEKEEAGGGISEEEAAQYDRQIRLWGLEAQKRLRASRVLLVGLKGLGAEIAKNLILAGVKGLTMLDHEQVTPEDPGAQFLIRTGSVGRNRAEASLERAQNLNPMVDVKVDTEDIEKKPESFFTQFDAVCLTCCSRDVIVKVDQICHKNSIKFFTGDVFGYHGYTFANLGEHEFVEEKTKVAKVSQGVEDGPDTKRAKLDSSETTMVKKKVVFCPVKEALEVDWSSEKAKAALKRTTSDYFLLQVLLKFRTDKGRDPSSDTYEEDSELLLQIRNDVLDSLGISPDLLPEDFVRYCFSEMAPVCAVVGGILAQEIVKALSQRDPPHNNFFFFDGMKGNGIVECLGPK
Sequence of SUMO-activating enzyme (Q9UBT2 whole entry): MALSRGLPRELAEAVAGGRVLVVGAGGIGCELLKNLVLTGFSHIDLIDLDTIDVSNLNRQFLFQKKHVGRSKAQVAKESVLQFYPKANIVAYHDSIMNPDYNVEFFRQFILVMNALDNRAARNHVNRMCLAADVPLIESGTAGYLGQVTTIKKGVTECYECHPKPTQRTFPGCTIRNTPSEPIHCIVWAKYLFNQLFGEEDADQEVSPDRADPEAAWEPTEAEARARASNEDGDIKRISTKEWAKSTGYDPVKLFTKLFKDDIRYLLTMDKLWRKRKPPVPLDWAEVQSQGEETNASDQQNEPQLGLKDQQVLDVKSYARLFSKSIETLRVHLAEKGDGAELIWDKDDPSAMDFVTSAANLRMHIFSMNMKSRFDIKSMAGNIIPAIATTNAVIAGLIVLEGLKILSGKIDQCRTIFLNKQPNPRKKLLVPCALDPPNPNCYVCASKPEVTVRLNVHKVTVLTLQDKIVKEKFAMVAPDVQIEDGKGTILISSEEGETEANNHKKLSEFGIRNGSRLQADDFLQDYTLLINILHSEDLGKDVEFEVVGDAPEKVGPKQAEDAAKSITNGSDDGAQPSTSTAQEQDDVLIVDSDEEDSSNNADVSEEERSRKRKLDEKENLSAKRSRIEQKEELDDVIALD
Sequence of Mitogen-activated protein kinase kinase kinase kinase 2 (Q12851 whole entry): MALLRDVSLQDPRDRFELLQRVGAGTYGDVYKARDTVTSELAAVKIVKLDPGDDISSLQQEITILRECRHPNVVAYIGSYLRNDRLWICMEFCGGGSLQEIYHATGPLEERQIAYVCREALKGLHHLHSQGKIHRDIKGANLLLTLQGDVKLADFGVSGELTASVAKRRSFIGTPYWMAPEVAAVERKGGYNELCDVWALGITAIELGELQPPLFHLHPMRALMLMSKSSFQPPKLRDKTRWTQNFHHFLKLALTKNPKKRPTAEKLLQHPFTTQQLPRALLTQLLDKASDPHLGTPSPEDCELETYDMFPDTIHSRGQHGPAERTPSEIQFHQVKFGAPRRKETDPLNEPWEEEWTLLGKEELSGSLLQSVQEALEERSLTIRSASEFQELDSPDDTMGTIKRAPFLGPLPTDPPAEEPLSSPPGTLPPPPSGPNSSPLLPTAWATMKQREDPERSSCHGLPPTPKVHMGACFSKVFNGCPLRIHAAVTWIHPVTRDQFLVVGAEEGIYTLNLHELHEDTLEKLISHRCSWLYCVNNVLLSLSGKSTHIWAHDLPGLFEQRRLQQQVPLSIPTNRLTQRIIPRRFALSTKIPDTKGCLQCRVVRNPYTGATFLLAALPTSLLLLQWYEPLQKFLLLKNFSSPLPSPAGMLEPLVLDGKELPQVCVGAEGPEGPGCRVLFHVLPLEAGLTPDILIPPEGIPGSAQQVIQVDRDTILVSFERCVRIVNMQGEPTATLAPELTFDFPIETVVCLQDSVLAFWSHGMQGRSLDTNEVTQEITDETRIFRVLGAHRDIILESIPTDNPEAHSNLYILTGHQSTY
Sequence of BDNF/NT-3 growth factors receptor (Q16620 whole entry): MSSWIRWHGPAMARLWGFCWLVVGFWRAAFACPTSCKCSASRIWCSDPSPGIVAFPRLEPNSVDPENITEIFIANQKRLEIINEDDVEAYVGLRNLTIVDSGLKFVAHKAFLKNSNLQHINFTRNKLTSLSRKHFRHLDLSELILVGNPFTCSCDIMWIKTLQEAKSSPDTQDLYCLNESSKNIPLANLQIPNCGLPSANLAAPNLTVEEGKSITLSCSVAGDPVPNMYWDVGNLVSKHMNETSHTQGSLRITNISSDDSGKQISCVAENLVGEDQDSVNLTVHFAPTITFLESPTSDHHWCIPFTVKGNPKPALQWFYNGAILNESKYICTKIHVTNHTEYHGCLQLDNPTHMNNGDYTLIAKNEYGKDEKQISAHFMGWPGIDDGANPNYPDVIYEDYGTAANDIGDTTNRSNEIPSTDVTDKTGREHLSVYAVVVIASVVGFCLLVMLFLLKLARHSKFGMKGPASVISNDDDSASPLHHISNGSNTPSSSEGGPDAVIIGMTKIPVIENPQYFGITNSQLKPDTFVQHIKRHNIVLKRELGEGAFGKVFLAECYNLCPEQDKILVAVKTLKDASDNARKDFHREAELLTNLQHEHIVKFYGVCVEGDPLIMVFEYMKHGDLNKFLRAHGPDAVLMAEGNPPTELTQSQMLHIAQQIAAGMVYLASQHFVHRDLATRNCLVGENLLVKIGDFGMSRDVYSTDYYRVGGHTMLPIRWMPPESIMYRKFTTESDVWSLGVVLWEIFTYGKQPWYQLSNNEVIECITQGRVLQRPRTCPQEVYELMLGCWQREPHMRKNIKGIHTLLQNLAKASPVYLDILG

For `CC(=O)N(C1=C(Cl)C(=O)c2ccccc2C1=O)c1ccc(C(=O)O)cc1`, the IC50 in assay [1] was 165 µM (active); in assay [2], 4.08 µM (active); at SUMO-activating enzyme, 3.77 µM (active).

With `CC1(C)C=C2C(=NN(c3ccccc3)C(N)=C2C#N)CO1`, the EC50 on Protein RecA is 0.297 µM (active).

Regarding `Cc1ccc(-c2cc3nc(Br)cnc3[nH]2)cc1`, the Ki in assay [3] was > 3.98 µM (inactive); in assay [4], > 3.98 µM (inactive); in [5], > 3.98 µM (inactive); in [6] it was > 3.98 µM (inactive); in assay [7], > 2.51 µM (inactive).
